Source: ChEMBL document CHEMBL4251615, “Discovery of anilino-furo[2,3-d]pyrimidine derivatives as dual inhibitors of EGFR/HER2 tyrosine kinase and their anticancer activity” (Eur J Med Chem, 2018)

Key:
SK-MEL-28 = assay: Growth inhibition of human SK-MEL-28 cells assessed as cell growth at 10 uM incubated for 48 hrs by sulforhodamine B assay relative to control; type: functional; settings: SK-MEL-28, 48 h, read-out: Activity
NCI/ADR-RES = assay: Growth inhibition of human NCI/ADR-RES cells assessed as cell growth at 10 uM incubated for 48 hrs by sulforhodamine B assay relative to control; type: functional; settings: read-out: Activity
HCT-116 = assay: Growth inhibition of human HCT116 cells assessed as cell growth at 10 uM incubated for 48 hrs by sulforhodamine B assay relative to control; type: functional; settings: HCT-116, 48 h, read-out: Activity
SNB-75 = assay: Growth inhibition of human SNB75 cells assessed as cell growth at 10 uM incubated for 48 hrs by sulforhodamine B assay relative to control; type: functional; settings: SNB-75, 48 h, read-out: Activity
COLO 205 = assay: Growth inhibition of human COLO205 cells assessed as cell growth at 10 uM incubated for 48 hrs by sulforhodamine B assay relative to control; type: functional; settings: COLO 205, 48 h, read-out: Activity
OVCAR-3 = assay: Growth inhibition of human OVCAR3 cells assessed as cell growth at 10 uM incubated for 48 hrs by sulforhodamine B assay relative to control; type: functional; settings: OVCAR-3, 48 h, read-out: Activity
MDA-MB-231 = assay: Growth inhibition of human MDA-MB-231 cells assessed as cell growth at 10 uM incubated for 48 hrs by sulforhodamine B assay relative to control; type: functional; settings: MDA-MB-231, 48 h, read-out: Activity
[1] = molecular target: Epidermal growth factor receptor (Homo sapiens, UniProt P00533); assay: Inhibition of recombinant human C-terminal His/N-terminal GST-tagged EGFR (668 to 1210 residues) expressed in baculovirus infected Sf9 cells at 10 uM using biotin-labeled poly[Glu:Tyr] (4:1) as substrate after 30 mins by Kinase-Glo plus luminescence assay relative to control
HT-29 = assay: Growth inhibition of human HT-29 cells assessed as cell growth at 10 uM incubated for 48 hrs by sulforhodamine B assay relative to control; type: functional; settings: HT-29, 48 h, read-out: Activity
OVCAR-8 = assay: Growth inhibition of human OVCAR8 cells assessed as cell growth at 10 uM incubated for 48 hrs by sulforhodamine B assay relative to control; type: functional; settings: OVCAR-8, 48 h, read-out: Activity
NCI-H460 = assay: Growth inhibition of human NCI-H460 cells assessed as cell growth at 10 uM incubated for 48 hrs by sulforhodamine B assay relative to control; type: functional; settings: NCI-H460, 48 h, read-out: Activity
UO-31 = assay: Growth inhibition of human UO31 cells assessed as cell growth at 10 uM incubated for 48 hrs by sulforhodamine B assay relative to control; type: functional; settings: UO-31, 48 h, read-out: Activity
T47D = assay: Growth inhibition of human T47D cells assessed as cell growth at 10 uM incubated for 48 hrs by sulforhodamine B assay relative to control; type: functional; settings: read-out: Activity
NCI-H23 = assay: Growth inhibition of human NCI-H23 cells assessed as cell growth at 10 uM incubated for 48 hrs by sulforhodamine B assay relative to control; type: functional; settings: NCI-H23, 48 h, read-out: Activity
NCI-H522 = assay: Growth inhibition of human NCI-H522 cells assessed as cell growth at 10 uM incubated for 48 hrs by sulforhodamine B assay relative to control; type: functional; settings: NCI-H522, 48 h, read-out: Activity
786-0 = assay: Growth inhibition of human 786-0 cells assessed as cell growth at 10 uM incubated for 48 hrs by sulforhodamine B assay relative to control; type: functional; settings: 786-0, 48 h, read-out: Activity
SK-MEL-2 = assay: Growth inhibition of human SK-MEL-2 cells assessed as cell growth at 10 uM incubated for 48 hrs by sulforhodamine B assay relative to control; type: functional; settings: SK-MEL-2, 48 h, read-out: Activity
SF-295 = assay: Growth inhibition of human SF295 cells assessed as cell growth at 10 uM incubated for 48 hrs by sulforhodamine B assay relative to control; type: functional; settings: SF-295, 48 h, read-out: Activity
HL-60(TB) = assay: Growth inhibition of human HL-60(TB) cells assessed as cell growth at 10 uM incubated for 48 hrs by sulforhodamine B assay relative to control; type: functional; settings: HL-60, 48 h, read-out: Activity
NCI-H226 = assay: Growth inhibition of human NCI-H226 cells assessed as cell growth at 10 uM incubated for 48 hrs by sulforhodamine B assay relative to control; type: functional; settings: NCI-H226, 48 h, read-out: Activity
TK-10 = assay: Growth inhibition of human TK10 cells assessed as cell growth at 10 uM incubated for 48 hrs by sulforhodamine B assay relative to control; type: functional; settings: TK-10, 48 h, read-out: Activity
ACHN = assay: Growth inhibition of human ACHN cells assessed as cell growth at 10 uM incubated for 48 hrs by sulforhodamine B assay relative to control; type: functional; settings: read-out: Activity
SR = assay: Growth inhibition of human SR cells assessed as cell growth at 10 uM incubated for 48 hrs by sulforhodamine B assay relative to control; type: functional; settings: read-out: Activity
HOP-92 = assay: Growth inhibition of human HOP92 cells assessed as cell growth at 10 uM incubated for 48 hrs by sulforhodamine B assay relative to control; type: functional; settings: HOP-92, 48 h, read-out: Activity
HOP-62 = assay: Growth inhibition of human HOP62 cells assessed as cell growth at 10 uM incubated for 48 hrs by sulforhodamine B assay relative to control; type: functional; settings: HOP-62, 48 h, read-out: Activity
SN12C = assay: Growth inhibition of human SN12C cells assessed as cell growth at 10 uM incubated for 48 hrs by sulforhodamine B assay relative to control; type: functional; settings: read-out: Activity
RXF 393 = assay: Growth inhibition of human RXF393 cells assessed as cell growth at 10 uM incubated for 48 hrs by sulforhodamine B assay relative to control; type: functional; settings: RXF 393, 48 h, read-out: Activity
KM12 = assay: Growth inhibition of human KM12 cells assessed as cell growth at 10 uM incubated for 48 hrs by sulforhodamine B assay relative to control; type: functional; settings: KM12, 48 h, read-out: Activity
DU-145 = assay: Growth inhibition of human DU145 cells assessed as cell growth at 10 uM incubated for 48 hrs by sulforhodamine B assay relative to control; type: functional; settings: DU-145, 48 h, read-out: Activity
SK-MEL-5 = assay: Growth inhibition of human SK-MEL-5 cells assessed as cell growth at 10 uM incubated for 48 hrs by sulforhodamine B assay relative to control; type: functional; settings: SK-MEL-5, 48 h, read-out: Activity
SNB-19 = assay: Growth inhibition of human SNB19 cells assessed as cell growth at 10 uM incubated for 48 hrs by sulforhodamine B assay relative to control; type: functional; settings: SNB-19, 48 h, read-out: Activity
LOX IMVI = assay: Growth inhibition of human LOXIMVI cells assessed as cell growth at 10 uM incubated for 48 hrs by sulforhodamine B assay relative to control; type: functional; settings: read-out: Activity

Sequence of Epidermal growth factor receptor (P00533 whole entry, the tested form may be a part): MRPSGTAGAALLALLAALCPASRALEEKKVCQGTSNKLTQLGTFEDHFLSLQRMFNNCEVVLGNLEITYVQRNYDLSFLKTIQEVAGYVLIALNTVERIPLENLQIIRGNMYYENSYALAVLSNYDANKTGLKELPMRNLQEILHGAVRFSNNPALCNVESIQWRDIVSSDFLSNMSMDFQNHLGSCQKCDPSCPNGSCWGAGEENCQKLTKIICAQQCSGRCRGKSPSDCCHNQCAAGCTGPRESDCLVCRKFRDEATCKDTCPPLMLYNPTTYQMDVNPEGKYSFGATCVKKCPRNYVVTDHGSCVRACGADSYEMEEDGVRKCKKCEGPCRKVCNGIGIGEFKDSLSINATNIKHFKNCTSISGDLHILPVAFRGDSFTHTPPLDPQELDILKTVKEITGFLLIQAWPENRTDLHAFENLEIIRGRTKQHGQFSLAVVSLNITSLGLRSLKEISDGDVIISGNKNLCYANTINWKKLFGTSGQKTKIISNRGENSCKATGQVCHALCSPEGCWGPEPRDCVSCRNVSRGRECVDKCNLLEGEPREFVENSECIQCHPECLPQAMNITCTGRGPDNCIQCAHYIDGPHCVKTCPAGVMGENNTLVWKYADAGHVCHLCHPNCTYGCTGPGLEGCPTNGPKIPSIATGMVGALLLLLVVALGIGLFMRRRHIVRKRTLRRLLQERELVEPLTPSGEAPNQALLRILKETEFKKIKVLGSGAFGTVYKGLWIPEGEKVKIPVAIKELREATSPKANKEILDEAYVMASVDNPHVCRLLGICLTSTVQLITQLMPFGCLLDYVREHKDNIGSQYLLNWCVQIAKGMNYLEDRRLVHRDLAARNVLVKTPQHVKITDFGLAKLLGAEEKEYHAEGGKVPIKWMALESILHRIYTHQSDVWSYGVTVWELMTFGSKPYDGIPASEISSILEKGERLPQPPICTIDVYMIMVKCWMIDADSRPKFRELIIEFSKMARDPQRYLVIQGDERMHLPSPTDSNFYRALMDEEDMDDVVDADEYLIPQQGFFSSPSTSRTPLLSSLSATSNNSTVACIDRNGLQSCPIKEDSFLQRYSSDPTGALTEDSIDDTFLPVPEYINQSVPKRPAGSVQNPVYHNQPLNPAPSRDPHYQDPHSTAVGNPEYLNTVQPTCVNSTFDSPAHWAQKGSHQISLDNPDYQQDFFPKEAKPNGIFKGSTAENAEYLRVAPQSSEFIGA

Structure (SMILES)	growth at 10 µM (SK-MEL-28) [%]	growth at 10 µM (NCI/ADR-RES) [%]	growth at 10 µM (HCT-116) [%]	growth at 10 µM (SNB-75) [%]	growth at 10 µM (COLO 205) [%]	growth at 10 µM (OVCAR-3) [%]	growth at 10 µM (MDA-MB-231) [%]	inhibition [1] [%]	growth at 10 µM (HT-29) [%]	growth at 10 µM (OVCAR-8) [%]	growth at 10 µM (NCI-H460) [%]	growth at 10 µM (UO-31) [%]	growth at 10 µM (T47D) [%]	growth at 10 µM (NCI-H23) [%]	growth at 10 µM (NCI-H522) [%]	growth at 10 µM (786-0) [%]	growth at 10 µM (SK-MEL-2) [%]	growth at 10 µM (SF-295) [%]	growth at 10 µM (HL-60(TB)) [%]	growth at 10 µM (NCI-H226) [%]	also measured
Cc1oc2ncnc(Nc3cccc(F)c3)c2c1C(=O)O	103	105	103	85.8	109	102	85	49	110	112	104	92.7	95.6	97.6	93.9	92	107	98.7	35.2	109	growth at 10 µM (TK-10): 105%; growth at 10 µM (ACHN): 100%; growth at 10 µM (SR): 104%; growth at 10 µM (HOP-92): 89.3%; growth at 10 µM (HOP-62): 98.4%; growth at 10 µM (SN12C): 89.7%; growth at 10 µM (RXF 393): 115%; growth at 10 µM (KM12): 102%; growth at 10 µM (DU-145): 107%; growth at 10 µM (SK-MEL-5): 99.6%; growth at 10 µM (SNB-19): 94.6%; growth at 10 µM (LOX IMVI): 98%
Cc1oc2ncnc(Nc3ccccc3)c2c1C(=O)NCCO	99	102	99.3	90.7	100	102	75	8	106	113	98.6	87.7	99.4	92	96.6	98.7	113	100	64.9	106	growth at 10 µM (TK-10): 122%; growth at 10 µM (ACHN): 91.8%; growth at 10 µM (SR): 52.2%; growth at 10 µM (HOP-92): 88.6%; growth at 10 µM (HOP-62): 99%; growth at 10 µM (SN12C): 93.2%; growth at 10 µM (RXF 393): 104%; growth at 10 µM (KM12): 95.2%; growth at 10 µM (DU-145): 105%; growth at 10 µM (SK-MEL-5): 97.5%; growth at 10 µM (SNB-19): 93.9%; growth at 10 µM (LOX IMVI): 95.4%
CCCNC(=O)c1c(C)oc2ncnc(Nc3cccc(Cl)c3)c12	112	94.1	105	94.6	104	106	88.2	65	93.8	96.8	107	72.4	53.5	91.5	54.9	105	85.6	90.1	96.3	90	growth at 10 µM (TK-10): 94.1%; growth at 10 µM (ACHN): 107%; growth at 10 µM (SR): 86%; growth at 10 µM (HOP-92): 57.2%; growth at 10 µM (HOP-62): 87.7%; growth at 10 µM (SN12C): 99.4%; growth at 10 µM (RXF 393): 111%; growth at 10 µM (KM12): 94.6%; growth at 10 µM (DU-145): 90%; growth at 10 µM (SK-MEL-5): 89.9%; growth at 10 µM (SNB-19): 106%; growth at 10 µM (LOX IMVI): 96.4%
Cc1cccc(Nc2ncnc3oc(C)c(C(=O)NCCN4CCOCC4)c23)c1	100	94.7	117	82.4	101	102	81.8	30	104	109	105	75.6	106	92.5	89.9	92.4	106	94	92.4	94.9	growth at 10 µM (TK-10): 98.7%; growth at 10 µM (ACHN): 93.6%; growth at 10 µM (SR): 126%; growth at 10 µM (HOP-92): 97.6%; growth at 10 µM (HOP-62): 93.1%; growth at 10 µM (SN12C): 94.3%; growth at 10 µM (RXF 393): 86.3%; growth at 10 µM (KM12): 94.6%; growth at 10 µM (DU-145): 99.4%; growth at 10 µM (SK-MEL-5): 96.9%; growth at 10 µM (SNB-19): 91%; growth at 10 µM (LOX IMVI): 93.2%
CCOC(=O)c1c(C)oc2ncnc(Nc3ccc(OCc4ccc(Cl)cc4)cc3)c12	101	101	98.7	116	111	117	101	6	94.4	107	107	99.5	84	95.4	84	98	105	97.9	91.7	98.8	growth at 10 µM (TK-10): 87.4%; growth at 10 µM (ACHN): 101%; growth at 10 µM (SR): 92.1%; growth at 10 µM (HOP-92): 107%; growth at 10 µM (HOP-62): 97.7%; growth at 10 µM (SN12C): 97.8%; growth at 10 µM (RXF 393): 85.9%; growth at 10 µM (KM12): 101%; growth at 10 µM (DU-145): 106%; growth at 10 µM (SK-MEL-5): 95.8%; growth at 10 µM (SNB-19): 111%; growth at 10 µM (LOX IMVI): 95.8%
